Patent US9512075B2 (OKAYAMA UNIVERSITY, priority 2012, dated 2016)
Values after ≈ are worked out from the molar mass of the structure shown. Read-outs that look alike come from different tables or passages of the source.

Assays:
Assay type in all cases: cell-based
[1] = test system: Escherichia coli K-12 strain; assay: MIC for Escherichia coli K-12 strain; details: Escherichia coli, K12STRAIN; K-12 strain; regular bouillon medium, 37° C. overnight, turbidity; read-out: MIC Escherichia coli K12
[2] = test system: Staphylococcus aureus 209P strain; assay: MIC for Staphylococcus aureus 209P strain; details: Staphylococcus aureus; 209P strain; regular bouillon medium, 37° C. overnight, turbidity; read-out: MIC Straphyrococcus aureus 209P
[3] = test system: Enterococcus faecalis 5038 strain; assay: MIC for Enterococcus faecalis 5038 strain; details: read-out: MIC Enterococcus faecalis 5038
[4] = test system: Enterococcus faecalis NCTC12201 strain (vancomycin-resistant Enterococcus: VRE); assay: MIC for Enterococcus faecalis NCTC12201 strain (VRE); details: read-out: MIC Enterococcus faecalis NCTC 12201 (VRE)
[5] = test system: Staphylococcus aureus MRSA No. 17 (methicillin-resistant Staphylococcus aureus: MRSA); assay: MIC for Staphylococcus aureus MRSA No. 17; details: read-out: MIC Straphyrococcus aureus MRSA No. 17 (MRSA)
[6] = test system: Staphylococcus aureus Smith strain; assay: MIC for Staphylococcus aureus Smith strain; details: read-out: MIC Straphyrococcus aureus Smith
[7] = test system: Clostridium difficile JCM1296 strain; assay: microbe, parasite or virus in culture; details: Clostridioides difficile, JCM1296, read-out: MIC Clostridium difficile JCM1296
[8] = test system: Escherichia coli BE1121 strain; assay: MIC for Escherichia coli BE1121 strain; details: Escherichia coli, BE1121STRAIN; BE1121 strain; regular bouillon medium, 37° C. overnight, turbidity; read-out: MIC Escherichia coli BE1121
[9] = test system: Clostridium perfringens PB6K strain; assay: microbe, parasite or virus in culture; details: Clostridium perfringens, PB6KSTRAIN, read-out: MIC Clostridium perfringens PB6K, PB6K strain; CD medium, 37° C. overnight, 10% CO2-containing anaerobic conditions
[10] = 5038 strain, Heart Infusion Broth medium, 37° C. overnight, turbidity
[11] = NCTC12201 strain (VRE), Heart Infusion Broth medium, 37° C. overnight, turbidity
[12] = MRSA No. 17, regular bouillon medium, 37° C. overnight, turbidity
[13] = Smith strain, regular bouillon medium, 37° C. overnight, turbidity

CCCCC1CCC(C(O)=C2C(=O)N(C(=O)Nc3ccc(Br)cc3)c3ccccc32)CC1 (stereo not drawn) [A040, N-(4-bromophenylaminocarbonyl)-3-(4-butylcyclohexylcarbonyl)-2-oxyindole]
MIC [1]: 256 µg/mL (≈ 515 µM) | MIC [2]: 128 µg/mL (≈ 257 µM) | MIC [3, 10]: 1 µg/mL (≈ 2.01 µM) | MIC [4, 11]: 1 µg/mL (≈ 2.01 µM) | MIC [5, 12]: 128 µg/mL (≈ 257 µM) | MIC [6, 13]: 2 µg/mL (≈ 4.02 µM) | MIC [7]: 8 µg/mL (≈ 16.1 µM) | MIC [8]: 256 µg/mL (≈ 515 µM) | MIC [9]: 4 µg/mL (≈ 8.04 µM)

CCCCC1CCC(C(=O)c2c(O)c3cc(F)ccc3oc2=O)CC1 (stereo not drawn) [B009, 3-(4-butylcyclohexylcarbonyl)-6-fluoro-4-hydroxycoumarin]
MIC [1]: 256 µg/mL (≈ 739 µM) | MIC [2]: 1 µg/mL (≈ 2.89 µM) | MIC ([3]; 5038STRAIN): 0.5 µg/mL (≈ 1.44 µM) | MIC [4]: 0.5 µg/mL (≈ 1.44 µM) | MIC ([5]; MRSA): 1 µg/mL (≈ 2.89 µM) | MIC [6]: 0.5 µg/mL (≈ 1.44 µM) | MIC [7]: 0.25 µg/mL (≈ 0.722 µM) | MIC [8]: 4 µg/mL (≈ 11.5 µM) | MIC [9]: 1 µg/mL (≈ 2.89 µM)

CCCCCCCCCCOCC(O)=C1C(=O)N(C(=O)Nc2ccccc2)c2ccc(F)cc21 [A036]
MIC [1]: 128 µg/mL (≈ 273 µM) | MIC [2]: 128 µg/mL (≈ 273 µM) | MIC [3, 10]: 0.5 µg/mL (≈ 1.07 µM) | MIC [4, 11]: 0.5 µg/mL (≈ 1.07 µM) | MIC [5, 12]: 128 µg/mL (≈ 273 µM) | MIC [6, 13]: 0.25 µg/mL (≈ 0.534 µM) | MIC [7]: 0.25 µg/mL (≈ 0.534 µM) | MIC [8]: 128 µg/mL (≈ 273 µM) | MIC [9]: 0.25 µg/mL (≈ 0.534 µM)
